Experimental findings from patent US20200407398A1, “Short Proline-Rich Lipopeptide Potentiates Minocycline and Rifampicin Against Multidrug-and Extensively Drug-Resistant Pseudomonas Aeruginosa” (priority 2018, published 2020) are described below.

Structures are written as SMILES. Peptide text beside a SMILES is read from it. * marks the point of attachment. Acetyl(1-adamantyl) = O=C(CC12CC3CC(CC(C3)C1)C2)*; Octanoyl = CCCCCCCC(=O)* A value given as a limit tells only on which side of the number the result lay.

One data set relates to pig erythrocytes. In kind it is cell-based. Particulars: red cells of porcine. The method, then:
Since PRAMPs are able to kill bacteria through membrane lysis, it is imperative to evaluate whether these synthesized SPRLPs also lyse eukaryotic membranes. The ability to lyse porcine red blood cells was assessed and the minimum concentration to result in 5% erythrocyte hemolysis (MHC) was reported (Tables 2 & 3). […] This greatly limits their therapeutic potential. […] However, all other SPRLPs were non-hemolytic (MHC>512 μg/mL).
The ability of SPRLPs to lyse eukaryotic red blood cells were quantified by the amount of hemoglobin released upon incubation with pig erythrocytes, following published protocols (37, 39). Fresh pig blood drawn from pig antecubital vein was centrifuged at 1000×g for 5 minutes at 4° C., washed with PBS three times and re-suspended in the same buffer, consecutively. Then, agents of interest were 2-fold serially diluted in PBS on 96-well plate and mixed with equal volumes of erythrocyte solution. Post 1-hour incubation at 37° C., intact cells were pelleted by centrifugation at 1000×g for 5 minutes at 4° C. The supernatant was then transferred to a new 96-well plate. The hemoglobin released was measured via EMax Plus microplate reader (Molecular Devices, USA) at 570 nm wavelength. Erythrocytes in PBS with or without 0.1% Triton X-100 was used as negative or positive control, respectively.

For data set [1], the system named is wild-type and MDR/XDR P. aeruginosa clinical isolates. To be noted: checkerboard assay; P. aeruginosa. The method, then:
We evaluated the activity of SPRLPs in combination with fifteen clinically-used antibiotics against P. aeruginosa. Antibiotics tested included fluoroquinolones (moxifloxacin, ciprofloxacin and levofloxacin), aminoglycosides (gentamicin, tobramycin and amikacin), cephalosporins (ceftazidime and cefotaxime), carbapenems (meropenem and doripenem), aztreonam, rifampicin, minocycline, colistin and fosfomycin. The SPRLPs were screened initially at a fixed concentration of 8 μg/mL (5 μM) in combination with antibiotics against wild-type P. aeruginosa PAO1. We assessed potentiation by at least a four-fold absolute MIC reduction of the antibiotic, after which synergism was further validated by a conventional checkerboard assay. A fractional inhibitory concentration (FIC) index of ≤0.5, 0.5<x≤4 or >4 was interpreted as synergistic, indifferent or antagonistic interaction, respectively (31). FIC index was obtained by adding the FIC values of the antibiotic and the SPRLP adjuvant. FIC of antibiotics was calculated by dividing the MIC of the antibiotic in the presence of the adjuvant by the MIC of the antibiotic alone. Similarly, the FIC of adjuvant was calculated via dividing the MIC of the adjuvant in the presence of the antibiotic by the MIC of the adjuvant alone.
(§1) Isolates used in this study were either obtained from the American Type Culture Collection (ATCC), the Canadian National Intensive Care Unit (CAN-ICU) surveillance study (27) or the Canadian Ward Surveillance (CANWARD) study (28). Clinical isolates belonging to the CAN-ICU and CANWARD studies were recovered from patients suffering a presumed infectious disease entering or admitted in a participating medical center across Canada during the time of study. MDR P. aeruginosa strains in this study refer to those that are resistant to aminoglycosides, fluoroquinolones, cephalosporins, and carbapenems while XDR strains are those that are resistant to aminoglycosides, fluoroquinolones, cephalosporins, carbapenems, aztreonam and penicillin+β-lactamase inhibitor combination (39, 40).
(§2) Microbroth dilution susceptibility test following the Clinical and Laboratory Standards Institute (CLSI) guidelines (32) was performed to assess the in vitro antibacterial activity of SPRLPs. Overnight grown bacterial cultures were diluted in saline to achieve a 0.5 McFarland turbidity, followed by 1:50 dilution in Mueller-Hinton broth (MHB) for inoculation to a final concentration of 5×10^5 colony forming units/mL. The assay was done on a 96-well plate to which the agents of interest were 2-fold serially diluted in MHB and incubated with equal volumes of inoculum at 37° C. for 18 hours. MIC was determined as the lowest concentration to inhibit visible bacterial growth in form of turbidity, which was confirmed using EMax Plus microplate reader (Molecular Devices, USA) at a wavelength of 590 nm. The well containing MHB broth with or without bacterial cells was used as positive or negative control, respectively.
The assay was performed on a 96-well plate, to which the agents of interest was 2-fold serially diluted in working MHB. Prior to serial dilution, SPRLP was added to the working MHB media so that a fixed final concentration of 8 μg/mL (5 μM) SPRLP per well was achieved. To ensure that the assay was working, the MIC determination test of the studied antibiotic (without SPRLP) was included on the same plate. Similar MIC results between the assay comparator and an independent MIC determination test (on a different plate) ensured validity of the synergy test. Overnight grown bacterial cultures were diluted in saline to 0.5 McFarland turbidity, followed by 1:50 dilution in MHB (without SPRLP) and inoculation into each well to a final concentration of approximately 5×10^5 colony forming units/mL. Wells containing only MHB (without SPRLP) with or without bacterial cells were used as positive or negative control, respectively.

Data set [2] has as its system E. coli CAN-ICU 61714 (gentamicin-resistant). It is filed as cell-based. The method, then:
(§3) The synthesized SPRLPs were evaluated for their antibacterial potency against a panel of Gram-positive and Gram-negative bacteria (Tables 2 & 3). Some of the included pathogens were collected from patients visiting or admitted to participating Canadian hospitals through the CAN-ICU (27) and CANWARD (28) national surveillance studies. Antibacterial activity was assessed using minimum inhibitory concentration (MIC) against various clinical pathogens.
as §1, §2

Data set [3] concerns S. maltophilia CAN-ICU 62584. It is filed as cell-based. The method, then: as §3, §1, §2
For data set [4], the system named is E. coli CANWARD-2011 97615 (gentamicin-, tobramycin-, ciprofloxacin-resistant) aac(3′)iia. It is filed as cell-based. The method, then:
as §3, §1, §2

The subject of data set [5] is P. aeruginosa CAN-ICU 62308 (gentamicin-resistant). It is filed as cell-based. As to the method: as §3, §1, §2
Data set [6] relates to P. aeruginosa wild-type PAO1. It is filed as cell-based. The method, then:
as §3, §1, §2

The next data set deals with P. aeruginosa ATCC 27853. In kind it is cell-based. As to the method: as §3, §1, §2
For data set [7], the system named is methicillin-resistant S. aureus ATCC 33592. In kind it is cell-based. The method, then: as §3, §1, §2
For a further data set, the system named is E. coli ATCC 25922. In kind it is cell-based. As to the method:
as §3, §1, §2

Data set [8] relates to methicillin-resistant S. epidermidis CAN-ICU 61589 (ceftazidime-resistant). It is filed as cell-based. Particulars: methicillin-resistant CAN-ICU 61589 (ceftazidime-resistant). The method, then:
as §3, §1, §2

Another data set concerns K. pneumoniae ATCC 13883. In kind it is cell-based. As to the method: as §3, §1, §2
The test system of data set [9] is A. baumannii CAN-ICU 63169. It is filed as cell-based. As to the method: as §3, §1, §2
The next data set concerns E. faecalis ATCC 29212. In kind it is cell-based. The method, then:
as §3, §1, §2

Data set [10] relates to methicillin-susceptible Staphylococcus epidermidis CANWARD-2008 81388. In kind it is cell-based. To be noted: methicillin-susceptible CANWARD-2008 81388. The method, then:
as §3, §1, §2

In data set [11] the test system is P. aeruginosa CANWARD-2011 96846 (gentamicin-, tobramycin-resistant). In kind it is cell-based. As to the method: as §3, §1, §2
A further data set deals with E. faecium ATCC 27270. It is filed as cell-based. The method, then:
as §3, §1, §2

For data set [12], the system named is E. coli CAN-ICU 63074 (amikacin-intermediate resistant). It is filed as cell-based. As to the method:
as §3, §1, §2

The test system of a further data set is S. aureus ATCC 29213. In kind it is cell-based. The method, then: as §3, §1, §2

On to `N=C(N)NCCC[C@H](NC(=O)[C@@H]1CCCN1C(=O)[C@H](CCCNC(=N)N)NC(=O)[C@@H]1CCCN1C(=O)[C@H](CCCNC(=N)N)NC(=O)[C@@H]1CCCN1C(=O)CC12CC3CC(CC(C3)C1)C2)C(=O)N1CCC[C@H]1C(N)=O` [Ad-PRP, Adamantyl-CH2CO-PRPRPRP-NH2] ({Acetyl(1-adamantyl)}-PRPRPRP-NH2), for which, in the data set on pig erythrocytes, the “MHC (minimum concentration that resulted in 5% red blood cell hemolysis)” value was greater than 512 µg/mL. In data set [1], the “interaction with minocycline (in words)” value was “indifferent interaction”. In addition, the “interaction with rifampicin (in words)” value in data set [1] is “indifferent interaction”. Moreover, the MIC (as a rule, the lowest concentration found to suppress growth) was greater than 128 mg/L in [2]; greater than 128 mg/L in data set [3]; greater than 128 mg/L in data set [4]; greater than 128 mg/L in data set [5]; greater than 512 mg/L in data set [6]; greater than 128 mg/L in the data set on P. aeruginosa ATCC 27853. Moreover, the MIC (in data set [7]; with E. coli ATCC 25922; in [8]; in the data set on K. pneumoniae ATCC 13883; in data set [9]; in the data set on E. faecalis ATCC 29212) was greater than 128 mg/L in each case. The MIC (in data set [10]; in data set [11]; in the data set with E. faecium ATCC 27270; in data set [12]; in the data set with S. aureus ATCC 29213) was greater than 128 mg/L throughout.
In the case of `CCCCCCCC(=O)N1CCC[C@H]1C(=O)N[C@@H](CCCNC(=N)N)C(=O)N1CCC[C@H]1C(=O)N[C@@H](CCCNC(=N)N)C(=O)N1CCC[C@H]1C(=O)N[C@@H](CCCNC(=N)N)C(=O)N1CCC[C@H]1C(N)=O` [Compound C8-PRP, CH3(CH2)6CO-PRPRPRP-NH2] (Octanoyl-PRPRPRP-NH2), the “MHC (minimum concentration that resulted in 5% red blood cell hemolysis)” value in the data set on pig erythrocytes was greater than 512 µg/mL. Moreover, in [1], the “interaction with minocycline (in words)” value is “indifferent interaction”. Further, the “interaction with rifampicin (in words)” value in data set [1] was “indifferent interaction”. The minimal inhibitory concentration (MIC) is greater than 128 mg/L in [2]; greater than 128 mg/L in data set [3]; greater than 128 mg/L in data set [4]; greater than 128 mg/L in data set [5]; greater than 512 mg/L in data set [6]; greater than 128 mg/L with P. aeruginosa ATCC 27853. For the same compound, the MIC (in [7]; with E. coli ATCC 25922; in [8]; with K. pneumoniae ATCC 13883; in [9]; with E. faecalis ATCC 29212) was greater than 128 mg/L in each case. In addition, the minimum inhibitory concentration (MIC) (in [10]; in [11]; with E. faecium ATCC 27270; in data set [12]; in the data set on S. aureus ATCC 29213) was greater than 128 mg/L throughout.
